Data published in the supplement of paper PMC10307832.

Assays:
[1] = compound: C[C@@]1(C(=O)Nc2ccc(F)nc2)CCCN1c1nc(Nc2cc(C3CC3)n[nH]2)c2cccn2n1 + COc1cc2c(Oc3ccc(NC(=O)C4(C(=O)Nc5ccc(F)cc5)CC4)cc3F)ccnc2cc1OCCCN1CCOCC1 [Foretinib] (partner 0.25 µM); assay: relative viability (nuclei count vs DMSO), 5 days (fraction); higher = more cells survive
Procedure, shortened: (§1)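 Relative viability divides the nuclei count in treated wells by that in vehicle wells. Lung cancer cell lines were seeded in 1536-well plates, dosed by pin tool the next day, and fixed and stained after 5 days in one step with final 0.05% Triton X-100, 1% formaldehyde and 1 ug/ml Hoechst. Dosing was a single drug or a fixed anchor-drug dose plus five library-drug doses (not always all listed) in √10 steps, and values are medians of duplicate plates imaged at 4×.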

Motesanib + Navitoclax = compound: CC1(C)CNc2cc(NC(=O)c3cccnc3NCc3ccncc3)ccc21 [Motesanib] + CC1(C)CCC(c2ccc(Cl)cc2)=C(CN2CCN(c3ccc(C(=O)NS(=O)(=O)c4ccc(N[C@H](CCN5CCOCC5)CSc5ccccc5)c(S(=O)(=O)C(F)(F)F)c4)cc3)CC2)C1 [Navitoclax] (partner 0.5 µM); assay: as above
Procedure, shortened: as §1

Row | Cell Line | relative viability ([1]; first compound 0.04 µM) | relative viability ([1]; first compound 0.1265 µM) | relative viability ([1]; first compound 0.4 µM) | relative viability ([1]; first compound 1.265 µM) | relative viability (Motesanib + Navitoclax; first compound 0.01 µM) | relative viability (Motesanib + Navitoclax; first compound 0.1 µM) | relative viability (Motesanib + Navitoclax; first compound 0.3162 µM) | relative viability (Motesanib + Navitoclax; first compound 1 µM) | relative viability (Motesanib + Navitoclax; first compound 0.03162 µM)
1 | NCI-H650 | 1.02 | 0.738 | 0.819 | 0.782 |  |  |  |  | 
2 | NCI-H1650 | 1.53 | 1.16 | 0.984 | 1.08 | 1.19 | 1.17 | 1.44 | 1.23 | 
3 | NCI-H2085 | 0.989 | 0.736 | 0.73 | 0.675 | 1.2 | 1.21 | 1.13 | 1.12 | 1.29
4 | NCI-H1793 | 0.664 | 0.566 |  | 0.715 | 0.594 | 0.41 | 0.583 | 0.33 | 0.445
5 | LC-2-ad | 0.651 | 0.617 | 0.599 | 0.5 | 0.405 | 0.522 | 0.402 | 0.4 | 0.381
6 | COR-L 105 | 0.887 | 0.993 | 0.828 | 1.01 | 1.01 | 0.853 | 0.818 | 0.851 | 0.805
7 | NCI-H1355 | 0.929 | 0.87 | 0.701 | 1 | 0.994 | 0.882 | 1.06 | 0.957 | 0.946
8 | H3255 | 1 | 1.1 | 0.883 | 0.787 | 0.507 | 0.544 | 0.506 | 0.529 | 0.603
9 | NCI-H1993 | 0.659 | 0.67 | 0.532 | 0.555 | 1.15 | 0.912 | 0.921 | 0.802 | 0.882
10 | NCI-H1734 | 0.603 | 0.494 | 0.336 | 0.408 | 0.861 | 0.796 | 0.959 | 0.938 | 0.915
11 | HOP-62 | 1.14 | 1.11 | 1.02 | 1.16 | 1.12 | 1.07 | 1.15 | 1.26 | 0.939
12 | LOU-NH91 | 0.938 | 0.94 | 0.86 | 0.948 | 0.774 | 0.741 | 0.703 | 0.769 | 0.638
13 | ChaGo-K-1 | 0.831 | 0.829 | 0.828 | 0.888 |  | 0.862 | 1.03 | 1.21 | 0.691
14 | NCI-H2228 | 0.719 | 0.686 | 0.491 | 0.537 | 1.13 | 0.632 | 1.04 | 1.12 | 0.913
15 | PC-14 | 1.04 | 0.888 | 0.813 | 0.93 | 1.03 | 1 | 1.06 | 1.05 | 1.06
16 | NCI-H1437 | 1.31 | 1.2 | 1.04 | 1.11 | 1.09 | 1.07 | 1.11 | 1.13 | 1.05
17 | NCI-H460 | 1.06 | 0.939 | 1.03 | 0.87 | 1.15 | 1.09 | 1.14 | 1.24 | 1.05
18 | NCI-H1666 | 0.925 | 0.909 | 0.778 | 0.784 | 0.947 | 0.99 | 1.05 | 0.88 | 0.979
19 | SW 900 | 0.705 | 0.694 | 0.558 | 0.816 |  |  |  |  | 
